# Measurements: patent US11318115B2, “Oral pharmaceutical composition of Tecovirimat and preparation method thereof” (priority 2016, dated 2022)
# Read-outs that look alike come from different tables or passages of the source.
# Tests used:
# [1] = In vitro dissolution in water (ChP 2015, 0931 Method II, 100 rpm); type: physicochemical; settings: within 60 min, 1000 ml water, FIG. 2
# Method: Experimental method: 1000 ml water was used as dissolution medium, and according to the Dissolution Test (Pharmacopoeia of the People's Republic of China (2015 Edition), General Notices, 0931 Method II), the operation was carried out at a rotation rate of 100 rpm, and a solution (5 ml) was taken at 5, 10, 15, 30, 45, and 60 min, respectively, and was filtrated through a 0.45 μm microporous membrane, to obtain a test solution; and Tecovirimat (bulk drug powder, 5 mg) as a reference was accurately weighed, and placed in a 100 ml volumetric flask, and the medium for dissolution was added to a final volume of 100 ml, thereby obtaining a reference solution. By high performance liquid chromatography, the peak area of the test solution and the reference solution were measured at 224 nm. The dissolution amounts at different time points was calculated by an external standard method, and the cumulative dissolution curves were plotted.
# [2] = cited from earlier work
# physchem = type: physicochemical; settings: aqueous with cosolvent or surfactant or cyclodextrin, thermodynamic from solid
# Method: Excess amounts of Tecovirimat (bulk drug powder) was added to an aqueous solution comprising meglumine and cyclodextrin at different ratios relative to each other to form a suspension. The suspension was placed in a constant-temperature incubation shaker, and was shaken at a temperature of 25±1° C., 37±1° C. and 60±1° C. for 72 h. After reaching equilibrium, the suspension was filtered through a 0.45 μm hydrophilic filter membrane to obtain a filtrate. After the filtrate was properly diluted with an acetonitrile-water (50:50, v/v) solution, the absorbance was measured at 224 nm, and the solubility of Tecovirimat was calculated. The corresponding solubility curve was plotted by using the solubility of the drug as the ordinate, and using the concentration of the cyclodextrin and/or meglumine as the abscissa.
# [3] = cited from earlier work; remark: listed apart in the source
smiles,measurement,setting,value
"O=C(NN1C(=O)[C@@H]2[C@@H]3C=C[C@@H]([C@H]4C[C@@H]34)[C@@H]2C1=O)c1ccc(C(F)(F)F)cc1 [Tecovirimat, 4-trifluoromethyl-N-(3,3a, 4,4a, 5,5a, 6,6a-octahydro-1,3-dioxo-4,6-ethenocycloprop [f]isoindol-2 (1H)-yl)-benzamide]",dissolution,[1],< 5%
same,water solubility,[2],less than 0.003 mg/ml
same,solubility,"physchem; 25 °C, cyclodextrin 20% (w/v) to 40% (w/v) alone, 25° C., FIG. 1(A), read-out: solubility of Tecovirimat in water",5 to 15 mg/mL
same,solubility,"physchem; 25 °C, meglumine 2% (w/v) to 10% (w/v) alone, 25° C., FIG. 1(B), read-out: solubility of Tecovirimat in water",2 to 7 mg/mL
same,solubility,"physchem; 25 °C, meglumine 5% (w/v) plus cyclodextrin 20% (w/v) to 40% (w/v), 25° C., FIG. 1(C), read-out: solubility of Tecovirimat in water",20 to 80 mg/mL
same,solubility,"physchem; 37 °C, cyclodextrin 20% (w/v) to 40% (w/v) alone, 37° C., FIG. 1(A), read-out: solubility of Tecovirimat in water",5 to 18 mg/mL
same,solubility,"physchem; 37 °C, meglumine 2% (w/v) to 10% (w/v) alone, 37° C., FIG. 1(B), read-out: solubility of Tecovirimat in water",2 to 9 mg/mL
same,solubility,"physchem; 37 °C, meglumine 5% (w/v) plus cyclodextrin 20% (w/v) to 40% (w/v), 37° C., FIG. 1(C), read-out: solubility of Tecovirimat in water",30 to 100 mg/mL
same,solubility,"physchem; 60 °C, cyclodextrin 20% (w/v) to 40% (w/v) alone, 60° C., FIG. 1(A), read-out: solubility of Tecovirimat in water",5 to 20 mg/mL
same,solubility,"physchem; 60 °C, meglumine 2% (w/v) to 10% (w/v) alone, 60° C., FIG. 1(B), read-out: solubility of Tecovirimat in water",2 to 10 mg/mL
same,solubility,"physchem; 60 °C, meglumine 5% (w/v) plus cyclodextrin 20% (w/v) to 40% (w/v), 60° C., FIG. 1(C), read-out: solubility of Tecovirimat in water",50 to 150 mg/mL
same,solubility,"physchem; ternary solubilizing composition: Tecovirimat, cyclodextrin, additive (e.g. meglumine), read-out: maximal solubility",≤ 152 mg/mL
same,solubility,"[3]; 20%-40% (w/v) hydroxypropyl-β-cyclodextrin (HP-β-CD), 37° C.",1.5 to 11 mg/mL
same,maximal solubility,"[3]; 40% (w/v) HP-β-CD, 70° C.",21.23 mg/mL
same,effect of cosolvent (PEG400) or nonionic surfactant (Tween 80) on solubility in HP-β-CD,[3]; HP-β-CD plus PEG400 or Tween 80,cannot further improve the solubility
